Results as given in patent publication US20080058332A1, “2,4,6-Trisubstituted Pyrimidines as Phosphotidylinositol (Pi) 3-Kinase Inhibitors and Their Use in the Treatment of Cancer” (priority 2004, published 2008).

Columns and labels:
p110α Type Ia human PI3K = target: T1, p110α Type Ia human PI3K (Homo sapiens, UniProt P42336); test: In vitro enzyme assay (AlphaScreen), inhibition of phosphorylation of PI(4,5)P2 by recombinant Type I PI3K; assay type: biochemical; details: DiC8-PI(4,5)P2 40 μM, ATP 4 μM, read-out: IC50 versus p110α Type Ia human PI3K, Test (a)
T1 construct: full length DNA of each of the p110α, p110β and p110δ Type Ia human PI3K p110 isoforms; 6-His; made in house
From the text: (a) In Vitro Enzyme Assay
The assay used AlphaScreen technology (Gray et al., Analytical Biochemistry, 2003, 313: 234-245) to determine the ability of test compounds to inhibit phosphorylation by recombinant Type I PI3K enzymes of the lipid PI(4,5)P2.
DNA fragments encoding human PI3K catalytic and regulatory subunits were isolated from cDNA libraries using standard molecular biology and PCR cloning techniques. The selected DNA fragments were used to generate baculovirus expression vectors. In particular, full length DNA of each of the p110α, p110β and p110δ Type Ia human PI3K p110 isoforms (EMBL Accession Nos. HSU79143, S67334, Y10055 for p110α, p110β and p110δ respectively) were sub-cloned into a pDEST10 vector (Invitrogen Limited, Fountain drive, Paisley, UK). The vector is a Gateway-adapted version of Fastbac1 containing a 6-His epitope tag. A truncated form of Type Ib human PI3K p110γ isoform corresponding to amino acid residues 144-1102 (EMBL Accession No. X8336A) and the full length human p85α regulatory subunit (EMBL Accession No. HSP13KIN) were also sub-cloned into pFastBac1 vector containing a 6-His epitope tag. The Type Ia p110 constructs were co-expressed with the p85α regulatory subunit. Following expression in the baculovirus system using standard baculovirus expression techniques, expressed proteins were purified using the His epitope tag using standard purification techniques.
DNA corresponding to amino acids 263 to 380 of human Grp1 PH domain was isolated from a cDNA library using standard molecular biology and PCR cloning techniques. […]
Biotinylated-DiC8-PI(3,4,5)P3 (50 nM; Cell Signals Inc., Catalogue No. 107), recombinant purified GST-Grp1 PH protein (2.5 nM) and AlphaScreen Anti-GST donor and acceptor beads (100 ng; Packard Bioscience Limited, Station Road, Pangbourne, Berkshire, UK, Catalogue No. 6760603M) were added and the assay plates were left for about 5 to 20 hours at ambient temperature in the dark. The resultant signals arising from laser light excitation at 680 nm were read using a Packard AlphaQuest instrument. […]

[1] = tested on: phosphorylation of Serine 473 in Akt; test: In vitro phospho-Ser473 Akt assay in MDA-MB-468 cells; assay type: cell-based; details: Homo sapiens, 2 hours incubation, read-out: IC50, Test (b), inhibition of phosphorylation of Serine 473 in Akt
Method: (b) In Vitro phospho-Ser473 Akt Assay
This assay determines the ability of test compounds to inhibit phosphorylation of Serine 473 in Akt as assessed using Acumen Explorer technology (Acumen Bioscience Limited), a plate reader that can be used to rapidly quantitate features of images generated by laser-scanning.
A MDA-MB-468 human breast adenocarcinoma cell line (LGC Promochem, Teddington, Middlesex, UK, Catalogue No. HTB-132) was routinely maintained at 37° C. with 5% CO2 up to a confluency of 70-90% in Dulbecco's modified Eagle's growth medium (DMEM; Invitrogen Limited, Paisley, UK Catalogue No. 41966-029) containing 10% heat-inactivated foetal calf serum (FCS; Sigma, Poole, Dorset, UK, Catalogue No. F0392) and 1% L-glutamine (Gibco, Catalogue No. 25030-024).
For the assay, the cells were detached from the culture flask using ‘Accutase’ (Innovative Cell Technologies Inc., San Diego, Calif., USA; Catalogue No. AT104) using standard tissue culture methods and resuspended in media to give 1.7×10^5 cells per ml. […]
All subsequent aspiration and wash steps were carried out using a Tecan 96 well plate washer (aspiration speed 10 mm/sec). […] An aliquot of PBS (50 μl) was added to each well and the plates were sealed with black plate sealers and the fluorescence signal was detected and analysed. […]

[2] = tested on: MDA-MB-468 human breast adenocarcinoma cells; test: In vitro MDA-MB-468 human breast adenocarcinoma proliferation assay; assay type: cell-based; details: 48 hours incubation, BrdU incorporation, read-out: IC50, Test (c), inhibition of MDA-MB-468 cell growth
From the text: (c) In Vitro MDA-MB-468 Human Breast Adenocarcinoma Proliferation Assay
This assay determines the ability of test compounds to inhibit cell proliferation as assessed using Cellomics Arrayscan technology. A MDA-MB-468 human breast adenocarcinoma cell line (LGC Promochem, Catalogue No. HTB-132) was routinely maintained as described in Biological Assay (b) hereinbefore.
For the proliferation assay, the cells were detached from the culture flask using Accutase and seeded into the inner 60 wells of a black Packard 96 well plate at a density of 8000 cells per well in 100 μl of complete growth media. The outer wells contained 100 μl of sterile PBS. The cells were incubated overnight at 37° C. with 5% CO2 to allow them to adhere.
On day 2, the cells were treated with test compounds and incubated for 48 hours at 37° C. with 5% CO2. […]
BrdU incorporation was detected by incubation for 1 hour at ambient temperature with mouse anti-BrdU antibody (50 μl; Caltag, Burlingame, Calif., US; Catalogue No. MD5200) that was diluted 1:40 in PBS containing 1% BSA and 0.05% Tween-20. […] Subsequently, PBS (100 μl) was added to each well and the plates were analysed using a Cellomics array scan to assess total cell number and number of BrdU positive cells.
Fluorescence dose response data obtained with each compound were analysed and the degree of inhibition of MDA-MB-468 cell growth was expressed as an IC50 value.

T1 sequence (P42336 whole entry, canonical isoform): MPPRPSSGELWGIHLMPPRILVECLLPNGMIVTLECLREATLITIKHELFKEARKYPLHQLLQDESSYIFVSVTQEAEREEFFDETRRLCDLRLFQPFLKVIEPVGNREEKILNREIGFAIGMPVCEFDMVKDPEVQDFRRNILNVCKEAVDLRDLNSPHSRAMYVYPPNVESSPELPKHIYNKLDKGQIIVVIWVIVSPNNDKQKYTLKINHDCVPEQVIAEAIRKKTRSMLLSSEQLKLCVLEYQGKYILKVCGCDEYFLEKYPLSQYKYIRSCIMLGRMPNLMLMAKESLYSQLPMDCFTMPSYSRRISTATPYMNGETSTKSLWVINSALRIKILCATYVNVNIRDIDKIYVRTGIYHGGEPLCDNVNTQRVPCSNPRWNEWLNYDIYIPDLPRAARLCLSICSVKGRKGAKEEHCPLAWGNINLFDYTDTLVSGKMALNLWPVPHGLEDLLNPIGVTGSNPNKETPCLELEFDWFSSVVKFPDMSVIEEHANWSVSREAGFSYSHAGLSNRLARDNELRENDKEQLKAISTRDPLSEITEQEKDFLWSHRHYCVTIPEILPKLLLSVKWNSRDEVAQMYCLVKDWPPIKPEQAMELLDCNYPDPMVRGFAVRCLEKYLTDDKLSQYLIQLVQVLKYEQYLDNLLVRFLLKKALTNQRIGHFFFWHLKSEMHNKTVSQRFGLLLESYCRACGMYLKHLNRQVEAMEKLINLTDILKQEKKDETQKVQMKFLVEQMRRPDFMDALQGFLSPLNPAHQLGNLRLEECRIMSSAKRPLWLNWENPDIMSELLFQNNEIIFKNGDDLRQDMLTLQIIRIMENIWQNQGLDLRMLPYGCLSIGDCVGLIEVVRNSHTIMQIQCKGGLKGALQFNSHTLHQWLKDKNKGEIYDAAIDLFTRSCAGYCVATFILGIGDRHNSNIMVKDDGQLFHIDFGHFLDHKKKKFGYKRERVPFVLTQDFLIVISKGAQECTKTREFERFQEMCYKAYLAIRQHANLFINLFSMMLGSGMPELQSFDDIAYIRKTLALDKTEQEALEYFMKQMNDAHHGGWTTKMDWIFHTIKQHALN
T1 sequence (P27986 whole entry partner, canonical isoform): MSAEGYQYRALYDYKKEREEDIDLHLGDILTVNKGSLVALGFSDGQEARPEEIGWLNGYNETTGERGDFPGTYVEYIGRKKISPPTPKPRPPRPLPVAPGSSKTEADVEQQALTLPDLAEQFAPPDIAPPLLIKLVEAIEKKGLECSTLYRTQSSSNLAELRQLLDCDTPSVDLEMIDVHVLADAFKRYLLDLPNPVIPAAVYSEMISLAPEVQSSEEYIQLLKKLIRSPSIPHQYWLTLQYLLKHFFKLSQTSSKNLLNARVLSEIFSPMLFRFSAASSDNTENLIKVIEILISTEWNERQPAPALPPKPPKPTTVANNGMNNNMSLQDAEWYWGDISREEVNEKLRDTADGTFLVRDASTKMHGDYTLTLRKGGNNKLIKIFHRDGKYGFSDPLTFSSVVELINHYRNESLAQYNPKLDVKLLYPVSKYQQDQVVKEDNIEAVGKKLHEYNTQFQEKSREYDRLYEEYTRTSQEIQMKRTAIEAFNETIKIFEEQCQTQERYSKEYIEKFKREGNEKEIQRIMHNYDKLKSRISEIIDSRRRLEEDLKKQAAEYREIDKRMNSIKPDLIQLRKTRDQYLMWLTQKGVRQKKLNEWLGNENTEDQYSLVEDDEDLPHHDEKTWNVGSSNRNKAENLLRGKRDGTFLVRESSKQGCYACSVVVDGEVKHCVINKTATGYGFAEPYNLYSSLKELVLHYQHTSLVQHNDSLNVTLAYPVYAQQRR

SMILES: O=C(Nc1cccc(-c2nc(-c3cccc(O)c3)cc(N3CCOCC3)n2)c1)C1CCNCC1 [Example 4(3), 4-(3-hydroxyphenyl)-6-morpholino-2-(3-piperidin-4-ylcarbonylaminophenyl)pyrimidine]
- IC50 (p110α Type Ia human PI3K): ~1 µM

SMILES: N[C@H]1CCC[C@@H](CC(=O)Nc2cccc(-c3nc(-c4cccc(CO)c4)cc(N4CCOCC4)n3)c2)C1 [Example 6(33), 2-(3-{2-[(1R,3S)-3-aminocyclohex-1-yl]acetamido]phenyl}-4-(3-hydroxymethylphenyl)-6-morpholinopyrimidine]
- IC50 (p110α Type Ia human PI3K): ~0.7 µM
- IC50 [1]: ~5.1 µM
- IC50 [2]: ~10 µM

SMILES: NCc1cccc(C(=O)Nc2cccc(-c3nc(-c4cccc(CO)c4)cc(N4CCOCC4)n3)c2)c1 [Example 6(48), 2-[3-(3-aminomethylbenzamido)phenyl]-4-(3-hydroxymethylphenyl)-6-morpholinopyrimidine]
- IC50 (p110α Type Ia human PI3K): ~1 µM
- IC50 [1]: ~1.8 µM
- IC50 [2]: ~5 µM
